Here are results for one molecule from US20090209573A1, “COMPOUNDS AND COMPOSITIONS AS HEDGEHOG PATHWAY MODULATORS” (IRM LLC, priority 2004, published 2009).

Assay type in all cases: cell-based
For data set [1], the system named is Daoy cells (medulloblastoma cell line). The experiment in a line: Cyto-toxicity Assay (Cell Titer-Glo cell viability), Daoy cells. The note with it: Homo sapiens, 48 h, 2 days, luminescent cell viability, read-out: EC50 against the proliferation of Daoy cells. The protocol: (§1) A cytotoxicity assay is performed to compare the effects of a compound of the invention on medulloblastoma cells (Daoy cells), basal cell carcinoma cells (TE354.T cells) and control cells (human normal fibroblast) according to the following procedure:
Daoy cells (medulloblastoma cell line) are purchased from ATCC, and cultured in Minimum essential medium (Eagle) with 2 mM L-glutamine and Earle's BSS adjusted to contain 1.5 g/L sodium bicarbonate, 0.1 mM non-essential amino acids, and 1.0 mM sodium pyruvate and 10% FBS at 37° C. with 5% CO2 in an air atmosphere.
(§2) Each of the above cell lines are independently seeded into 96-well plates and cultured to a density of 5,000-10,000 cells/well. A compound of the invention, at different concentrations, is added into the cell cultures. After 2 days, the cell viability is evaluated with Cell Titer-Glo Luminescent Cell Viability Assay Kit (Promega) following the manufacturer's protocol. The cell viability is directly measured by luminescent signaling and EC50s are measured when the signal is inhibited 50%.
On the technique in general: In ATP-based viability assays light output follows the ATP content of the culture.

Data set [2] deals with normal human dermal fibroblast cells. Description: Cyto-toxicity Assay (Cell Titer-Glo cell viability), control cells. The note with it: 2 days, luminescent cell viability. The protocol: as §1
Normal human dermal fibroblast cells (Clonetics) are cultured in Fibroblast Growth Medium (Clonetics).
as §2

The test system of data set [3] is Shh-mediated pathway activation (Gli-reporter in C3H10T1/2 cells). Description: Gli-Luc Reporter Assay for Hh Pathway Inhibition. The note with it: C3H 10T1/2, recombinant mouse Shh protein 2 μg/mL, 48 hours, firefly luciferase normalized to Renilla, read-out: EC50 to block Shh-mediated pathway activation. The protocol:
Gli-Luc Reporter Assay for Hh Pathway Inhibition
Mouse embryonic mesoderm fibroblasts C3H10T1/2 cells (obtained from American Type Culture Collection, ATCC, Manassas, Va.) are cultured in MEM-α medium (Gibco/Invitrogen, Carlsbad, Calif.) supplemented with 10% heat inactivated FBS (Gibco/Invitrogen, Carlsbad, Calif.), 50 unit/mL penicillin and 50 μg/mL of streptomycin (Gibco/Invitrogen, Carlsbad, Calif.) at 37° C. with 5% CO2 in air atmosphere. C3H10T1/2 cells in a 10 cm dish are co-transfected with 8 μg of Gli-reporter plasmid and 2 μg of Renilla luciferase control reporter (Promega, Madison, Wis.) with 30 μL of FuGENE6 (Roche Diagnostics, Indianapolis, Ind.) following the manufacturer's protocol. After 12 hours, cells are trypsinized and replated into a 96-well plate with MEM-α medium supplemented with 2% FBS, and treated with recombinant mouse Shh protein (expressed in E. coli, 2 μg/mL) and different concentrations of a compound of the invention. After 48 hours, the firefly luciferase and Renilla luciferase activities are assayed with the Dual-Glo™ Luciferase Assay System (Promega, Madison, Wis.). Firefly luciferase activity is normalized to Renilla luciferase activity. The EC50 is measured when the effect of the compound reduces the luminescence signal by 50%.

`CCOc1ccc(Nc2nc(-c3c(C)nc4ccccn34)cs2)cc1` [Example 1, (4-Ethoxy-phenyl)-[4-(2-methyl-imidazo[1,2-a]pyridin-3-yl)-thiazol-2-yl]-amine]: the EC50 in data set [1] and in data set [3] was 30 nM each time. Besides, the “toxic effect on normal human dermal fibroblast cells (control)” value in data set [2] is “no toxic effect”.
